{
  "source": "paper PMC3914206",
  "type_in_all_cases": "binding",
  "parameters_in_all_cases": "KINOMEscan: ABL1(F317L)-phosphorylated / KINOMEscan: ABL1(H396P)-nonphosphorylated / KINOMEscan: ABL1(H396P)-phosphorylated / KINOMEscan: ABL1(M351T)-phosphorylated / KINOMEscan: ABL1(T315I)-phosphorylated / KINOMEscan: ABL1-nonphosphorylated / KINOMEscan: ABL1-phosphorylated / KINOMEscan: ACVR2A / KINOMEscan: ACVR2B / KINOMEscan: ADCK3 / KINOMEscan: ADCK4 / KINOMEscan: AKT1 / KINOMEscan: AKT3 / KINOMEscan: ALK / KINOMEscan: ARK5 / KINOMEscan: AURKA / KINOMEscan: AURKC / KINOMEscan: BIKE / KINOMEscan: BMPR1A / KINOMEscan: BMPR1B / KINOMEscan: BMX / KINOMEscan: BRK / KINOMEscan: BRSK1 / KINOMEscan: BRSK2 / KINOMEscan: CAMK1 / KINOMEscan: CAMK1D / KINOMEscan: CAMK1G / KINOMEscan: CAMK2A / KINOMEscan: CAMK2B / KINOMEscan: AAK1 / KINOMEscan: CAMK2D / KINOMEscan: CAMK2G / KINOMEscan: ABL1(F317I)-nonphosphorylated / KINOMEscan: ABL1(F317I)-phosphorylated / KINOMEscan: ABL1(F317L)-nonphosphorylated: unit: % Ctrl",
  "key": {"[1]": {"molecular_target": "T1, panel of 442 kinases (Homo sapiens, UniProt Q9UQB9)", "T1 construct": "purchased KINOMEscan", "T1 sequence (Q9UQB9 1-309)": "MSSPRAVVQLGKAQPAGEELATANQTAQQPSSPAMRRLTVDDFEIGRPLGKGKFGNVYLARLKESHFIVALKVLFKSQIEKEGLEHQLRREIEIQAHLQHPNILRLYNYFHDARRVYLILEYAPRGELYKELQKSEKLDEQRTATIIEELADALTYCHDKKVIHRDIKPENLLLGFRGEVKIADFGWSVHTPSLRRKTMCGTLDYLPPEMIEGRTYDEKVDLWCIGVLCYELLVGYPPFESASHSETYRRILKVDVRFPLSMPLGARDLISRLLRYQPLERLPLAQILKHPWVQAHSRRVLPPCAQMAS", "settings": "Compound Concentration 10 µM", "from_the_text": "(§1) We assessed the selectivity of members of this scaffold using the KINOMEscan methodology across a near comprehensive panel of 442 kinases [[18,27]]."}, "[2]": {"molecular_target": "T2, panel of 442 kinases (Homo sapiens, UniProt Q14289)", "T2 construct": "purchased KINOMEscan", "T2 sequence (Q14289 whole entry)": "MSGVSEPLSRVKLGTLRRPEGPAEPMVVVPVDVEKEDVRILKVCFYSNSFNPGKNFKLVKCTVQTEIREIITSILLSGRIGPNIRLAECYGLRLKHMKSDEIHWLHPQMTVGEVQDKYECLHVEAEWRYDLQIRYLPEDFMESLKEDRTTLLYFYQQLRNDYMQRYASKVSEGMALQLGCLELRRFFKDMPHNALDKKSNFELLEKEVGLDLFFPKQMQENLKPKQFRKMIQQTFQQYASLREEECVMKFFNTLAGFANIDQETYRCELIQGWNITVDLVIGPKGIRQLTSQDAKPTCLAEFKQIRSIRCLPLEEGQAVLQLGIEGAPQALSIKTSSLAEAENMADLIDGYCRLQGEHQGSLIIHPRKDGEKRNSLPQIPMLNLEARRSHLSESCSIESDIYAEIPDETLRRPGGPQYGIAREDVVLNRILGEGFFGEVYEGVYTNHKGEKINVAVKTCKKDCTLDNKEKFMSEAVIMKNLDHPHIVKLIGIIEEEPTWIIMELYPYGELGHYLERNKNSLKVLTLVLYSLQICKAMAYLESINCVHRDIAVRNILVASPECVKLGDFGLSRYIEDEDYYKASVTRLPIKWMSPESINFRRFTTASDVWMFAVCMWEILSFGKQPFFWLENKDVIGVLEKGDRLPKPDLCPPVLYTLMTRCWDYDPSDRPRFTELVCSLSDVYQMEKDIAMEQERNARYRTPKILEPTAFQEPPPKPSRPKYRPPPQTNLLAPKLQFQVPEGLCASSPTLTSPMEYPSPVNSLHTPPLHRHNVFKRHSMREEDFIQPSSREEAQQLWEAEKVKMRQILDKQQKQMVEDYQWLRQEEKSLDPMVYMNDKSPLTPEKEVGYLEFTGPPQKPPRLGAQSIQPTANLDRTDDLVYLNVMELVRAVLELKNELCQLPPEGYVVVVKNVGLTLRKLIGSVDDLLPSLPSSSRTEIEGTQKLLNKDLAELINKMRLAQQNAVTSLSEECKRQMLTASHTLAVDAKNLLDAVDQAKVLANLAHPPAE", "settings": "Compound Concentration 10 µM", "from_the_text": "as §1"}, "[3]": {"molecular_target": "T3, panel of 442 kinases (Homo sapiens, UniProt Q15569)", "T3 construct": "purchased KINOMEscan", "T3 sequence (Q15569 whole entry)": "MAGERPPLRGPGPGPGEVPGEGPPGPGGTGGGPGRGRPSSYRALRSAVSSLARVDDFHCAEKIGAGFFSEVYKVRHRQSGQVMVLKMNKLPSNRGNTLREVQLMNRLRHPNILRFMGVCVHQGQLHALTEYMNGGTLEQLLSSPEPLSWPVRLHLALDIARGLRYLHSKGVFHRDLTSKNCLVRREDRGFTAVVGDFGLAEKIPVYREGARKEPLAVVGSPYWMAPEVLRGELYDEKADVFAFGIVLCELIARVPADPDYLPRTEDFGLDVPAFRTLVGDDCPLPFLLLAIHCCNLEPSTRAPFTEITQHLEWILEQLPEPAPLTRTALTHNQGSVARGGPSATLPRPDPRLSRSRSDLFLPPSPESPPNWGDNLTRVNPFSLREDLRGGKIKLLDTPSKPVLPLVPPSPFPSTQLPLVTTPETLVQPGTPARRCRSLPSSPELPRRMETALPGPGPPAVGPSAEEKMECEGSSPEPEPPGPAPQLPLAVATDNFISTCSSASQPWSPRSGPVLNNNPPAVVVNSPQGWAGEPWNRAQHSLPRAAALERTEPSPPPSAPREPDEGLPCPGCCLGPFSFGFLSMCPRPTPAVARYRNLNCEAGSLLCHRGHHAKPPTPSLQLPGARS", "settings": "kinase TESK1; compound concentration 10 µM", "from_the_text": "as §1"}},
  "data": [
    {"smiles": "CCOc1cc(C(=O)N2CCC(N3CCN(C)CC3)CC2)ccc1Nc1ncc2c(n1)N(C1CCCC1)c1ccccc1C(=O)N2C", "note": "[Compound 26]", "values": [
      {"measurement": "KINOMEscan: AURKC", "setting": "[1]", "value": 66},
      {"measurement": "KINOMEscan: PYK2", "setting": "[2]", "value": 43},
      {"measurement": "% Ctrl, TESK1", "setting": "[3]", "value": 100, "unit": "% Ctrl"}
    ]},
    {"smiles": "COc1cc(C(=O)N2CCC(N3CCN(C)CC3)CC2)ccc1Nc1ncc2c(n1)N1CCc3cccc(c31)C(=O)N2C", "note": "[Compound 24]", "values": [
      {"measurement": "KINOMEscan: AURKC", "setting": "[1]", "value": 50},
      {"measurement": "KINOMEscan: PYK2", "setting": "[2]", "value": 77},
      {"measurement": "% Ctrl, TESK1", "setting": "[3]", "value": 84, "unit": "% Ctrl"}
    ]},
    {"smiles": "COc1cc(C(=O)N2CCC(N3CCN(C)CC3)CC2)ccc1Nc1ncc2c(n1)N(C)c1ccccc1C(=O)N2C", "note": "[15 (LRRK2-IN-1)]", "values": [
      {"measurement": "KINOMEscan: AURKC", "setting": "[1]", "value": 50},
      {"measurement": "KINOMEscan: PYK2", "setting": "[2]", "value": 78},
      {"measurement": "% Ctrl, TESK1", "setting": "[3]", "value": 82, "unit": "% Ctrl"}
    ]},
    {"smiles": "COc1cc(C(=O)N2CCC(N3CCN(C)CC3)CC2)ccc1Nc1ncc2c(n1)N(C1CCCC1)c1ccccc1C(=O)N2C", "note": "[Compound 25, 11-cyclopentyl-2-((2-methoxy-4-(4-(4-methylpiperazin-1-yl)piperidine-1-carbonyl)phenyl)amino)-5-methyl-5H-benzo[e]pyrimido[5,4-b][1,4]diazepin-6(11H)-one]", "values": [
      {"measurement": "KINOMEscan: AURKC", "setting": "[1]", "value": 38},
      {"measurement": "KINOMEscan: PYK2", "setting": "[2]", "value": 17},
      {"measurement": "% Ctrl, TESK1", "setting": "[3]", "value": 100, "unit": "% Ctrl"}
    ]}
  ]
}
